Results published in the supplement of paper PMC10307832.

Legend:
Assay in all cases: relative viability (nuclei count vs DMSO), 5 days (fraction); higher = more cells survive
Venetoclax + Phenformin = compound: CC1(C)CCC(CN2CCN(c3ccc(C(=O)NS(=O)(=O)c4ccc(NCC5CCOCC5)c([N+](=O)[O-])c4)c(Oc4cnc5[nH]ccc5c4)c3)CC2)=C(c2ccc(Cl)cc2)C1 [Venetoclax] + N=C(N)NC(=N)NCCc1ccccc1 [Phenformin] (partner 250 µM)
Method in brief: (§1)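 Cells from lung cancer lines were seeded into 1536-well plates and, one day later, dosed by pin tool. Treatments were either a single drug or a fixed dose of an anchor drug with five library-drug doses (not always all listed) in √10 steps. After 5 days, nuclei were stained in a one-step fixation (final 0.05% Triton X-100, 1% formaldehyde, 1 ug/ml Hoechst) and counted on 4× images, and relative viability is the treated-to-vehicle nuclei ratio, as the median of duplicate plates.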

Venetoclax + OSI-027 = compound: CC1(C)CCC(CN2CCN(c3ccc(C(=O)NS(=O)(=O)c4ccc(NCC5CCOCC5)c([N+](=O)[O-])c4)c(Oc4cnc5[nH]ccc5c4)c3)CC2)=C(c2ccc(Cl)cc2)C1 [Venetoclax] + COc1cccc2cc(-c3nc([C@H]4CC[C@H](C(=O)O)CC4)n4ncnc(N)c34)[nH]c12 [OSI-027] (partner 0.5 µM)
Method in brief: as §1

Selumetinib + Luminespib = compound: Cn1cnc2c(F)c(Nc3ccc(Br)cc3Cl)c(C(=O)NOCCO)cc21 [Selumetinib] + CCNC(=O)c1noc(-c2cc(C(C)C)c(O)cc2O)c1-c1ccc(CN2CCOCC2)cc1 [Luminespib] (partner 0.01 µM)
Method in brief: as §1

Venetoclax + Linsitinib = compound: CC1(C)CCC(CN2CCN(c3ccc(C(=O)NS(=O)(=O)c4ccc(NCC5CCOCC5)c([N+](=O)[O-])c4)c(Oc4cnc5[nH]ccc5c4)c3)CC2)=C(c2ccc(Cl)cc2)C1 [Venetoclax] + C[C@]1(O)C[C@@H](c2nc(-c3ccc4ccc(-c5ccccc5)nc4c3)c3c(N)nccn32)C1 [Linsitinib] (partner 1 µM)
Method in brief: as §1

Cell Line	relative viability (Venetoclax + Phenformin; first compound 0.01 µM)	relative viability (Venetoclax + Phenformin; first compound 0.03162 µM)	relative viability (Venetoclax + Phenformin; first compound 0.1 µM)	relative viability (Venetoclax + Phenformin; first compound 0.3162 µM)	relative viability (Venetoclax + Phenformin; first compound 1 µM)	relative viability (Venetoclax + OSI-027; first compound 0.01 µM)	relative viability (Venetoclax + OSI-027; first compound 0.03162 µM)	relative viability (Venetoclax + OSI-027; first compound 0.1 µM)	relative viability (Venetoclax + OSI-027; first compound 0.3162 µM)	relative viability (Venetoclax + OSI-027; first compound 1 µM)	relative viability (Selumetinib + Luminespib; first compound 0.02 µM)	relative viability (Selumetinib + Luminespib; first compound 0.06325 µM)	relative viability (Selumetinib + Luminespib; first compound 0.2 µM)	relative viability (Selumetinib + Luminespib; first compound 0.6325 µM)	relative viability (Venetoclax + Linsitinib; first compound 0.01 µM)	relative viability (Venetoclax + Linsitinib; first compound 0.03162 µM)	relative viability (Venetoclax + Linsitinib; first compound 0.1 µM)	relative viability (Venetoclax + Linsitinib; first compound 0.3162 µM)	relative viability (Venetoclax + Linsitinib; first compound 1 µM)
COR-L23	0.42	0.442	0.413	0.43	0.423	0.661	0.839	0.713	0.687	0.696	0.644	0.637	0.721	0.409	0.864	0.953	0.879	0.897	0.815
ABC-1	0.234	0.269	0.236	0.241	0.228	0.569	0.536	0.444	0.488	0.442	0.581	0.422	0.607	0.314	0.7	0.878	0.697	0.81	0.813
SW 900	0.385	0.702	0.528	0.706	0.623	0.641	0.548	0.484	0.525	0.604	0.19	0.131	0.159	0.155					
PC-3 [JPC-3]	0.503	0.51	0.487	0.468	0.513	0.676	0.719	0.779	0.791	0.608	0.721	0.625	0.458	0.442	0.922	1.01	0.977	0.938	0.949
NCI-H1648						0.287	0.24	0.313	0.265	0.256									
A549	0.141	0.147	0.129	0.164	0.129										0.586	0.597	0.524	0.568	0.558
A-427	0.292	0.322	0.31	0.348	0.259	0.449	0.572	0.434	0.487	0.46	0.901	0.986	0.953	0.874	1.06	1.18	1.1	1.16	1.19
NCI-H1975	0.429	0.397	0.401	0.41	0.366	0.768	0.788	0.667	0.702	0.68	0.143	0.209	0.175	0.183	1.02	0.971	0.869	0.92	0.92
LU99A	0.852	0.92	0.799	0.878	0.822	0.288	0.321	0.316	0.338	0.295	0.246	0.259	0.202	0.201	0.482	0.604	0.505	0.56	0.55
NCI-H1755	0.645	0.616	0.573	0.629	0.555	0.73	0.74	0.68	0.757	0.667	0.715	0.531	0.495	0.368	0.978	1	0.848	0.964	0.969
LOU-NH91	0.641	0.784	0.615	0.742	0.698	0.674	0.762	0.726	0.755	0.673	0.381	0.302	0.329	0.359	0.887	0.986	0.882	0.975	0.895
SK-LU-1	0.537	0.613	0.526	0.531	0.505	0.38	0.436	0.345	0.365	0.329	0.183	0.17	0.178	0.181	1.01	1.25	0.998	1.04	1.13
BEN	0.26	0.306	0.302	0.273	0.264	0.291	0.295	0.289	0.281	0.281	0.28	0.83	0.404	0.347	0.91	0.919	0.769	0.842	0.997
NCI-H1734	0.396	0.446	0.326	0.411	0.358	0.616	0.568	0.515	0.57	0.542	0.195	0.176	0.17	0.152	0.894	0.911	0.803	0.855	0.865
ChaGo-K-1	0.539	0.489	0.429	0.49	0.453	0.716	0.634	0.516	0.552	0.479	0.531	0.48	0.731	0.568					
Calu-6															0.897	0.943	1.01	0.901	0.896
NCI-H2342	0.763	0.531	0.601	0.568	0.563	0.767	0.708	0.554	0.715	0.665	0.655	0.64	0.677	0.69					
EBC-1															0.902	0.963	0.912	0.837	0.786
NCI-H522	0.647	0.735	0.561	0.613	0.637	0.631	0.759	0.684	0.824	0.6	1.1	1.14	0.887	0.759					
NCI-H2170	0.319	0.415	0.399	0.368	0.34	0.597	0.802	0.552	0.713	0.633	0.358	0.845	0.651	0.617					
IA-LM															0.51	0.605	0.71	0.418	0.403
